Each structure is given as a SMILES string. In brackets after ≈: the same amount, converted by molar mass.

In one test the test system is SK-OV-3. The test is described as follows: Cytotoxicity against human SKOV3 cells. Type of test: functional, cell-based.
The subject of the next test is KB. Description: Cytotoxicity against human KB cells. Type of test: functional, cell-based.
The subject of a further test is Candida albicans. Description: Antifungal activity against Candida albicans. It is filed as functional, organism-based.
Another test concerns SK-MEL. The test is described as follows: Cytotoxicity against human SK-MEL cells. Type of test: functional, cell-based.
The test system of a further test is Cryptococcus neoformans. The test is described as follows: Antifungal activity against Cryptococcus neoformans. It is filed as functional, organism-based.
The test system of test [1] is Plasmodium falciparum. Description: Antiplasmodial activity against chloroquine-resistant Plasmodium falciparum W2. Type of test: functional, organism-based.
In test [2] the test system is Plasmodium falciparum. The test is described as follows: Antiplasmodial activity against Plasmodium falciparum D6. It is filed as functional, organism-based.

The term IC50 denotes the midpoint of a concentration-inhibition curve. High values mean weaker potency, low ones greater potency. As for `C=C1CC[C@@H](O)[C@]2(C)C[C@@H]3OC(=O)[C@H](C)[C@H]3[C@H](OC(C)=O)[C@@H]12`, the IC50 in the test on SK-OV-3 came out at 8 µg/mL (≈ 25.9 µM); in the test with KB it was 1.1 µg/mL (≈ 3.57 µM).
On to `C=C1C(=O)O[C@H]2C[C@@]3(C)O[C@@H]3CC/C(C)=C/[C@@H](OC(C)=O)[C@H]12` [PYRETHROSIN], for which the IC50 in the test with Candida albicans came to 30 µg/mL (≈ 97.9 µM); with SK-MEL, 4.2 µg/mL (≈ 13.7 µM).
In the test on Cryptococcus neoformans, `C=C1CC[C@@H](O)[C@]2(C)C[C@@H]3OC(=O)[C@H](C)[C@H]3[C@H](O)[C@@H]12` registered an IC50 of 35 µg/mL (≈ 131 µM).
On to `CC(=O)O[C@H]1[C@H]2[C@H](C[C@]3(C)[C@@H]1[C@](C)(O)CC[C@H]3OC(C)=O)OC(=O)[C@@H]2C`, for which the figures for the IC50 in the test on Cryptococcus neoformans, with Plasmodium falciparum [1] and in the test on Plasmodium falciparum [2] were 25 µg/mL (≈ 67.9 µM), 0.38 µg/mL (≈ 1.03 µM) and 0.32 µg/mL (≈ 0.869 µM), respectively.
In the test with SK-MEL, `CC1=CC[C@@H](O)[C@]2(C)C[C@@H]3OC(=O)[C@H](C)[C@H]3[C@H](O)[C@@H]12` registered an IC50 of 7.5 µg/mL (≈ 28.2 µM).
On to `CC(=O)O[C@H]1[C@H]2[C@H](C[C@@]3(C)[C@H](O)CC[C@@](C)(O)[C@H]13)OC(=O)[C@@H]2C`, for which the IC50 was found to be 10 µg/mL (≈ 30.6 µM) with Candida albicans and 0.88 µg/mL (≈ 2.7 µM) with Plasmodium falciparum [2].
